Measurements from ChEMBL document CHEMBL3352484, “Modified 2,4-diaminopyrimidine-based dihydrofolate reductase inhibitors as potential drug scaffolds against Bacillus anthracis” (Bioorg Med Chem, 2015).
In brackets after ≈: the same amount, converted by molar mass.

System: Bacillus anthracis
Experiment: Antimicrobial activity against Bacillus anthracis assessed as growth inhibition measured as turbidity
Format: functional

## CCCC1c2ccccc2C=NN1C(=O)/C=C/c1cc(Cc2cnc(N)nc2N)cc(OCc2ccc(C(F)(F)F)cc2)c1OC (racemic)
  MIC: 8 µg/mL (≈ 12.7 µM)

## CCCC1c2ccccc2C=NN1C(=O)/C=C/c1cc(Cc2cnc(N)nc2N)cc(OCc2ccc(F)cc2)c1OC (racemic)
  MIC: 8 µg/mL (≈ 13.8 µM)

## CCCC1c2ccccc2C=NN1C(=O)/C=C/c1cc(C(=O)c2cnc(N)nc2N)cc(OC)c1OC (racemic)
  MIC: > 128 µg/mL

## CCCC1c2ccccc2C=NN1C(=O)/C=C/c1cc(Cc2cnc(N)nc2N)cc(OC(=O)c2ccccc2)c1OC (racemic)
  MIC: 4 µg/mL (≈ 6.94 µM)

## CCOc1cc(Cc2cnc(N)nc2N)cc(/C=C/C(=O)N2N=Cc3ccccc3C2C=C(C)C)c1OCC (racemic)
  MIC: 1 µg/mL (≈ 1.9 µM)

## CCCC1c2ccccc2C=NN1C(=O)/C=C/c1cc(Cc2cnc(N)nc2N)cc(OCC)c1OCC (racemic)
  MIC: 4 µg/mL (≈ 7.77 µM)

## CCCC1c2ccccc2C=NN1C(=O)/C=C/c1cc(Cc2cnc(N)nc2N)cc(OC(=O)c2ccc([N+](=O)[O-])cc2)c1OC (racemic)
  MIC: 8 µg/mL (≈ 12.9 µM)

## CCCC1c2ccccc2C=NN1C(=O)/C=C/c1cc(Cc2cnc(N)nc2N)cc(OC(=O)c2ccc(OC(F)(F)F)cc2)c1OC (racemic)
  MIC: 8 µg/mL (≈ 12.1 µM)

## CCCC1c2ccccc2C=NN1C(=O)/C=C/c1cc(Cc2cnc(N)nc2N)cc(OC(=O)c2ccc(OC)cc2)c1OC (racemic)
  MIC: 8 µg/mL (≈ 13.2 µM)

## CCOc1c(/C=C/C(=O)N2N=Cc3ccccc3C2C=C(C)C)cc(Cc2cnc(N)nc2N)cc1OC (racemic)
  MIC: 0.5 µg/mL (≈ 0.975 µM)

## CCCOc1cc(Cc2cnc(N)nc2N)cc(/C=C/C(=O)N2N=Cc3ccccc3C2CCC)c1OC (racemic)
  MIC: 4 µg/mL (≈ 7.77 µM)

## CCCC1c2ccccc2C=NN1C(=O)/C=C/c1cc(Cc2cnc(N)nc2N)cc(OC)c1OCC (racemic)
  MIC: 2 µg/mL (≈ 4 µM)

## COc1cc(C(=O)c2cnc(N)nc2N)cc(/C=C/C(=O)N2N=Cc3ccccc3C2C=C(C)C)c1OC (racemic)
  MIC: > 128 µg/mL

## CCCC1c2ccccc2C=NN1C(=O)/C=C/c1cc(Cc2cnc(N)nc2N)cc(OC)c1OCc1ccccc1 (racemic)
  MIC: 4 µg/mL (≈ 7.11 µM)

## CCCC1c2ccccc2C=NN1C(=O)/C=C/c1cc(Cc2cnc(N)nc2N)cc2c1OCO2 (racemic)
  MIC: 32 µg/mL (≈ 68 µM)

## COc1cc(Cc2cnc(N)nc2N)cc(OC)c1OC [TRIMETHOPRIM]
  MIC: > 2050 µg/mL
